A word on the IC50: it is the point on the concentration scale where inhibition reaches its midpoint.

Counter-ions that a name gives are not always drawn. Like-named read-outs stand apart in the source and are kept apart here.

Drawing on US11827628B2, “Compositions and methods for inhibition of the JAK pathway” (Rigel Pharmaceuticals, Inc., priority 2005, dated 2023), this text covers IC50 for 22 compounds.

For one assay, the system named is Primary human T-cells. Put plainly: Primary Human T-Cell Proliferation Assay Stimulated with IL-2 (CellTiter-Glo). To be noted: read-out: IC50, Example 42. The class given is cell-based. The procedure, abridged: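 IC50 derived from CellTiter-Glo ATP signal after 72 hours of IL-2-driven proliferation at 37° C. Cells: primary human T-cells from blood, stimulated beforehand 3-4 days on anti-CD3/anti-CD28 with IL-2, then rested from IL-2 before compound exposure in duplicate; IL-2-free wells served as unstimulated control.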

The subject of assay [1] is IL-4 stimulated expression of CD23 in human Ramos B cells (JAK-1 and JAK-3). Put plainly: Assay for Ramos B-Cell Line Stimulated with IL-4 (CD23 upregulation, FACS). The class given is cell-based. To be noted: read-out: IC50, Example 41. The procedure, abridged:
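Steps: Ramos B cells are suspended in RPMI with 5% serum, exposed to compound for 1 h at 37 °C, stimulated with IL-4 (final 50 units/mL) for 20-24 h, stained for CD23 and analysed by flow cytometry. IC50 is calculated.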

[2] abbreviates: primary human T-cell proliferation stimulated with IL-2.
Where [3] appears, read: Ramos B-cell line stimulated with IL-4, CD23 expression by FACS.
Setting [4] is: Homo sapiens, T-cell, primary human T-cell proliferation stimulated with IL-2.
The mark [5] stands for this setting: Homo sapiens, Ramos, Ramos B-cell line stimulated with IL-4, CD23 expression by FACS.
The mark [6] stands for this setting: primary human T-cells stimulated with IL-2, proliferation.
Setting [7] is: Ramos B cells stimulated with IL-4, CD23 expression by FACS.

As to `NS(=O)(=O)c1ccc(Nc2ncc(F)c(Nc3cccc(CNC(=O)C4CC4)c3)n2)cc1` [III-38, N2-(4-aminosulfonyl)phenyl-N4-(3-cyclopropylcarbonylaminomethyl)phenyl-5-fluoro-2,4-pyrimidinediamine], the concentration for half-maximal inhibition (IC50) with Primary human T-cells (setting [2]) turned out to be 1130 nM; in assay [1] (setting [3]), 198 nM.
Regarding `NS(=O)(=O)c1cccc(Nc2ncc(F)c(Nc3ccc(CNC(=O)C4CC4)cc3)n2)c1` [III-42, N2-(3-aminosulfonyl)phenyl-N4-(4-cyclopropylcarbonylaminomethyl)phenyl-5-fluoro-2,4-pyrimidinediamine], the 50% inhibitory concentration (IC50) in the assay with Primary human T-cells (setting [2]) came out at 641 nM; in assay [1] (setting [3]) it was 294 nM.
The like results for `Cc1ccc(Nc2ncc(F)c(Nc3ccc(CNC(=O)C4CC4)cc3)n2)cc1S(N)(=O)=O` [III-43, N2-(3-aminosulfonyl-4-methyl)phenyl-N4-(4-cyclopropylcarbonylaminomethyl)phenyl-5-fluoro-2,4-pyrimidinediamine] were, in that order, 898 nM and 270 nM.
Take `C=CC(=O)NCc1ccc(Nc2nc(Nc3cccc(S(N)(=O)=O)c3)ncc2F)cc1` [III-45, N4-(4-Acrylamidomethylphenyl)-N2-(3-aminosulfonylphenyl)-5-fluoro-2,4-pyrimidinediamine]: the 50% inhibitory concentration (IC50) in the assay with Primary human T-cells (setting [4]) worked out at 384 nM; in assay [1] (setting [5]), 293 nM.
For the compound `C=CC(=O)NCc1ccc(Nc2nc(Nc3ccc(C)c(S(N)(=O)=O)c3)ncc2F)cc1` [III-46, N4-(4-Acrylamidomethylphenyl)-N2-(3-aminosulfonyl-4-methylphenyl)-5-fluoro-2,4-pyrimidinediamine], the values for the half-maximal inhibitory concentration (IC50) (in the assay on Primary human T-cells (setting [4]); in assay [1] (setting [5])) were 1050 nM and 211 nM, respectively.
As to `Cc1ccc(Nc2ncc(F)c(Nc3ccc(CCC(N)=O)cc3)n2)cc1S(N)(=O)=O` [III-47, N4-[4-(2-Aminocarboxylethylene)phenyl]-5-fluoro-N2-(4-methyl-3-aminosulfonylphenyl)-2,4-pyrimidinediamine], the IC50 was 366 nM in the assay with Primary human T-cells (setting [2]) and 211 nM in assay [1] (setting [3]).
The like results for `NC(=O)CCc1ccc(Nc2nc(Nc3cccc(S(N)(=O)=O)c3)ncc2F)cc1` [III-48, N4-[4-(2-Aminocarboxylethylene)phenyl]-N2-(3-aminosulfonylphenyl)-5-fluoro-2,4-pyrimidinediamine] were, in that order, 218 nM and 204 nM.
On to `Cn1ccc(NC(=O)Cc2ccc(Nc3nc(Nc4cccc(S(N)(=O)=O)c4)ncc3F)cc2)n1` [III-50, N2-(3-Aminosulfonylphenyl)-5-fluoro-N-4-[4(1-methylpyrazolyl-3-aminocarbonylmethylene)phenyl]-2,4-pyrimidinediamine], for which the IC50 in the assay on Primary human T-cells (setting [2]) came out at 1970 nM; in assay [1] (setting [3]), 306 nM.
For `CCn1nccc1NC(=O)Cc1ccc(Nc2nc(Nc3ccc(C)c(S(N)(=O)=O)c3)ncc2F)cc1` [III-52, N2-(3-Aminosulfonyl-4-methylphenyl)-5-N4-[(1-ethylpyrazolyl-5-aminocarbonylmethylene)phenyl]-5-fluoro-2,4-pyrimidinediamine], the IC50 in the assay on Primary human T-cells (setting [2]) came to 1200 nM; in assay [1] (setting [3]), 183 nM.
For `NC(=O)OCCc1ccc(Nc2nc(Nc3ccc(Cl)c(S(N)(=O)=O)c3)ncc2F)cc1` [III-55, N4-{4-[2-(Aminocarbonyloxy)ethyl]phenyl}-N2-(3-aminosulfonyl-4-chlorophenyl)-5-fluoro-2,4-pyrimidinediamine], the results for the IC50 (with Primary human T-cells (setting [4]); in assay [1] (setting [5])) were 973 nM and 144 nM, respectively.
The like results for `Cc1ccc(Nc2ncc(F)c(Nc3ccc(CCOC(=O)N(C)C)cc3)n2)cc1S(N)(=O)=O` [III-56, N2-(3-Aminosulfonyl-4-methylphenyl)-N4-{4-[2-(dimethylaminocarbonyloxy)ethyl]phenyl}-5-fluoro-2,4-pyrimidinediamine] were, in that order, 499 nM and 196 nM.
On to `CN(C)C(=O)OCCc1ccc(Nc2nc(Nc3ccc(Cl)c(S(N)(=O)=O)c3)ncc2F)cc1` [III-58, N2-(3-Aminosulfonyl-4-chlorophenyl)-N4-{4-[2-(dimethylaminocarbonyloxy)ethyl]phenyl}-5-fluoro-2,4-pyrimidinediamine], for which the IC50 is 1260 nM in the assay with Primary human T-cells (setting [4]) and 157 nM in assay [1] (setting [5]).
With `CNC(=O)OCCc1ccc(Nc2nc(Nc3ccc(C)c(S(N)(=O)=O)c3)ncc2F)cc1` [III-59, N2-(3-Aminosulfonyl-4-methylphenyl)-5-fluoro-N4-{4-[2-(methylaminocarbonyloxy)ethyl]phenyl}-2,4-pyrimidinediamine], the half-inhibitory concentration (IC50) came to 458 nM with Primary human T-cells (setting [4]) and 150 nM in assay [1] (setting [5]).
For the compound `CNC(=O)OCCc1ccc(Nc2nc(Nc3ccc(Cl)c(S(N)(=O)=O)c3)ncc2F)cc1` [III-61, N2-(3-Aminosulfonyl-4-chlorophenyl)-5-fluoro-N4-{4-[2-(methylaminocarbonyloxy)ethyl]phenyl}-2,4-pyrimidinediamine], the IC50 in the assay on Primary human T-cells (setting [4]) turned out to be 1080 nM; in assay [1] (setting [5]), 259 nM.
The like results for `NS(=O)(=O)c1cccc(Nc2ncc(F)c(Nc3ccc(Cc4ccccc4)cc3)n2)c1` [III-62, N2-(3-Aminosulfonylphenyl)-N4-(4-benzylphenyl)-5-fluoro-2,4-pyrimidinediamine] were, in that order, 699 nM and 172 nM.
In the case of `NS(=O)(=O)c1cccc(Nc2ncc(F)c(Nc3ccc(Cc4ccncc4)cc3)n2)c1` [III-73, N2-(3-Aminosulfonylphenyl)-5-fluoro-N4-[4-(4-pyridylmethyl)phenyl]-2,4-pyrimidinediamine Hydrochloride Salt], the IC50 in the assay with Primary human T-cells (primary human T-cell proliferation stimulated with IL-2, Hydrochloride Salt) came to 434 nM; in assay [1] (Ramos B-cell line stimulated with IL-4, CD23 expression by FACS, Hydrochloride Salt) it was 131 nM.
For the compound `NS(=O)(=O)c1ccc(Nc2ncc(F)c(NCCc3ccc(-c4ccncc4)cc3)n2)cc1` [III-79, N2-(4-Aminosulfonylphenyl)-5-fluoro-N4-[4-(4-pyridinyl)phenethyl]-2,4-pyrimidinediamine], the results for the IC50 (with Primary human T-cells (setting [4]); in assay [1] (setting [5])) were 967 nM and 169 nM, respectively.
The like results for `NS(=O)(=O)c1cccc(Nc2ncc(F)c(Nc3ccc(Cc4cc[n+]([O-])cc4)cc3)n2)c1` [III-80, N2-(3-Aminosulfonylphenyl)-5-fluoro-N4-[4-(1-oxido-4-pyridylmethyl)phenyl]-2,4-pyrimidinediamine] were, in that order, 844 nM and 3160 nM.
Turning to `CCN(CC)CCNS(=O)(=O)c1ccc(Nc2ncc(F)c(Nc3ccc(Cn4ccnc4)cc3)n2)cc1` [III-84, N2-[4-(2-N,N-Diethylaminoethyl)aminosulfonylphenyl)-5-fluoro-N4-[4-(1-imidazolylmethyl)phenyl]-2,4-pyrimidinediamine], the IC50 with Primary human T-cells (setting [2]) stood at 1900 nM; in assay [1] (setting [3]), 443 nM.
For the compound `Cc1ccc(Nc2ncc(F)c(Nc3ccc(Cn4ccnc4C)cc3)n2)cc1S(N)(=O)=O` [III-91, N2-(3-Aminosulfonyl-4-methylphenyl)-5-fluoro-N4-[4-(2-methyl-1-imidazolylmethyl)phenyl]-2,4-pyrimidinediamine], the IC50 turned out to be 467 nM in the assay with Primary human T-cells (setting [6]) and 143 nM in assay [1] (setting [7]).
As for `Cc1nccn1Cc1ccc(Nc2nc(Nc3ccc(S(N)(=O)=O)cc3)ncc2F)cc1` [III-92, N2-(4-Aminosulfonylphenyl)-5-fluoro-N4-[4-(2-methyl-1-imidazolylmethyl)phenyl]-2,4-pyrimidinediamine], the IC50 in the assay with Primary human T-cells (setting [6]) amounted to 1900 nM; in assay [1] (setting [7]) it was 323 nM.
With `CNS(=O)(=O)c1cc(Nc2ncc(F)c(Nc3ccc(Cn4ccnc4C)cc3)n2)ccc1C` [III-93, 5-Fluoro-N2-[3-(N-methylaminosulfony)-4-methylphenyl]-N4-[4-(2-methyl-1-imidazolylmethyl)phenyl]-2,4-pyrimidinediamine], the half-inhibitory concentration (IC50) in the assay with Primary human T-cells (setting [6]) came to 819 nM; in assay [1] (setting [7]) it was 173 nM.
